Data taken from patent US20140315738A1, “MARINE MEDAKA GENES RESPONDING TO THE EXPOSURE OF ENDOCRINE-DISRUPTING CHEMICALS, AND METHOD FOR DIAGNOSING AN AQUATIC ECO-SYSTEM CONTAMINATION USING SAME” (priority 2011, published 2014).

System: Javanese medaka (Oryzias javanicus) livers
Assay type: in vivo
Details: 76 μg/L, 48 hr, liver
Protocol: Javanese medaka was cultured in natural seawater filtered through three types of filters (10, 10 and 1 μm). Water temperature was fixed at 25° C. with underwater heater, and Artemia salina nauplii were fed once a day.
To 3 L beaker with 2 L filtered seawater therein, 10 male Javanese medaka bred in culture water tank were transported each time, and acclimated for 24 hr. […] Additionally, five Javanese medaka of Example <1-1> were exposed to BPA (76 μg/L) for 48 hr. […] The Javanese medaka was transported to ice water, one at a time, which momentarily stunned it, followed by beheading and evisceration and liver removal.
To the Javanese medaka livers of BPA exposed group (48 hr) produced from Example <1-2>, and of control group without exposure, 1 ml of TRI Reagent solution (Molecular Research Center Inc, Cincinnati, Ohio, USA) was added, homogenized with glass homogenizer, and left at room temperature for 5 min. Next, chloroform (200 μl) was added and mixed, left at room temperature for 10 min. After centrifugation for 15 min (12,000×g, 4° C.), supernatant was obtained, to which isopropanol (500 μl) was added and left at room temperature for 5 min. After centrifugation for about 20 min (12,000×g, 4° C.), solution was removed, thus leaving precipitate. To the precipitate, 70% ethanol solution (50 μl) was added and after centrifugation for 5 min, ethanol solution was removed, and the precipitate RNA was dried. After drying, the product was dissolved in appropriate amount of DEPC (diethylpyrocarbonate)-treated water.
The entire RNA of the distilled exposed group and non-exposed group were labeled with Cy3 and Cy5 as follows, using Agilent's Low RNA Input Linear Amplification Kit Plus (Agilent Technologies, USA). To be specific, RNA (1 μg) was mixed with dT-promoter primer and MMLV-Reverse transcriptase. After reverse transcription at 40° C. for 2 hr, T7 polymerase was added, and linear amplification was done at 40° C. for 2 hr. After the amplification process explained above, the samples of experimental and control groups were labeled with Cy3-CTP and Cy5-CTP, respectively.
Fluorescent-labeled cDNA sample was purified with Qiagen PCR purification kit, and eluted with distilled water. The purified, fluorescent-labeled cDNA sample was added to hybridization buffer (3×SSC, 0.3% SDS, 50% formamide, 20 μg Cot-1 DNA, 20 μg yeast tRNA), and concentrated with microcon YM-30. After hybridization, the hybridized compound was heated at 95° C. for 3 min for denaturization, and the temperature of the heated, hybridized compound was decreased by centrifugation for 30 sec at 12,000 g. The produced Javanese medaka cDNA microarray was covered with coverslip, and the denaturized, hybridized compound was pipetted. The microarray was put into GT-Hyb chamber for reaction to occur at 65° C. for 16 hr. After hybridization, the microarray was taken out of the chamber, underwent cleansing process as explained below, rotated and dried, and stored in a dark room until scanning. The Javanese medaka microarray was then scanned with Axon GenePix 4000B scanner (Axon Instrument, USA). On the GenePix Pro 6.0 program, dots from the scanned image were gridded using gridding file, and quantified to produce GPR file including analysis on cy5/Cy3 magnitudes and ratios.
Based on the GPR file obtained with the GenePix Pro Program, the following analysis was made using analysis program, i.e., GeneSpring 7.3.1 (Agilent Technologies, USA). Normalization: by LOWESS (locally weighted regression scatterplot smoothing). Reliable gene): significant genes were obtained by flagging out dots whose sums of medial values were less than the background, or dots whose standard deviations of pixel values are not significant. Significant genes: dots whose normalized ratio is at […] higher interval, were screened. […]

[1] = Down-regulation, + = increased expression level
[2] = Up-regulation, − = decreased expression level

CC(C)(c1ccc(O)cc1)c1ccc(O)cc1 [BPA, Bisphenol A]
Fold difference, 40S ribosomal protein S19 (No. 115) [1]: +2.00 fold
Fold difference, ATP citrate lyase (ACLY), transcript variant 2 (No. 154) [1]: +2.84 fold
Fold difference, ATP-binding cassette transporter sub-family G member 2b (No. 146) [1]: +2.59 fold
Fold difference, GTP cyclohydrolase 1 precursor (No. 148) [1]: +2.60 fold
Fold difference, Iron-responsive element-binding protein 1 (No. 141) [1]: +2.25 fold
Fold difference, Isocitrate dehydrogenase (No. 153) [1]: +2.72 fold
Fold difference, NADH dehydrogenase subunit 4 (No. 126) [1]: +2.08 fold
Fold difference, Nedd4 family interacting protein 2 (No. 132) [1]: +2.13 fold
Fold difference, Restin (Cytoplasmic linker protein-170 alpha-2) (No. 133) [1]: +2.14 fold
Fold difference, Ribosomal protein S14, transcript variant 4 (No. 158) [1]: +3.11 fold
Fold difference, TBT-binding protein (No. 120) [1]: +2.02 fold
Fold difference, Thyroid hormone receptor-associated protein complex 150 kDa component (No. 149) [1]: +2.62 fold
Fold difference, Transforming growth factor-beta-induced protein ig-h3 (No. 114) [1]: +2.00 fold
Fold difference, Translation initiation factor eIF-2B subunit epsilon (No. 157) [1]: +3.00 fold
Fold difference, Transmembrane protein 85 (No. 159) [1]: +5.22 fold
Fold difference, adult alpha-type globin (No. 147) [1]: +2.59 fold
Fold difference, alcohol dehydrogenase Class VI (ADH8) (No. 116) [1]: +2.01 fold
Fold difference, alpha-2-macroglobulin (No. 119) [1]: +2.01 fold
Fold difference, alpha-2-macroglobulin-2 (No. 123) [1]: +2.03 fold
Fold difference, apolipoprotein A-IV4 (No. 156) [1]: +2.94 fold
Fold difference, arginyl-tRNA synthetase (No. 145) [1]: +2.52 fold
Fold difference, calreticulin (No. 142) [1]: +2.25 fold
Fold difference, carboxyl ester lipase, tandem duplicate 2 (No. 118) [1]: +2.01 fold
Fold difference, catalase (No. 135) [1]: +2.16 fold
Fold difference, choriogenin L (No. 130) [1]: +2.12 fold
Fold difference, chymotrypsinogen 2-like protein (No. 140) [1]: +2.22 fold
Fold difference, complement component C9 (No. 122) [1]: +2.03 fold
Fold difference, complement factor B/C2-B (No. 131) [1]: +2.12 fold
Fold difference, complement regulatory plasma protein (No. 128) [1]: +2.11 fold
Fold difference, cyclin B2 (No. 152) [1]: +2.66 fold
Fold difference, cyclin Y-like 1 (No. 127) [1]: +2.09 fold
Fold difference, decorin mRNA (No. 155) [1]: +2.87 fold
Fold difference, delta 6-desaturase (No. 143) [1]: +2.39 fold
Fold difference, glutathione S transferase Rho-class (No. 162) [1]: +6.90 fold
Fold difference, heat shock protein 84b (No. 160) [1]: +5.53 fold
Fold difference, hepcidin-like precursor (No. 125) [1]: +2.07 fold
Fold difference, hypoxanthine phosphoribosyltransferase 1 (No. 138) [1]: +2.17 fold
Fold difference, kelch domain containing 10 (No. 144) [1]: +2.42 fold
Fold difference, kelch-like ECH-associated protein 1b (No. 124) [1]: +2.06 fold
Fold difference, keratin 15 (No. 121) [1]: +2.02 fold
Fold difference, malate dehydrogenase (No. 117) [1]: +2.01 fold
Fold difference, ornithine decarboxylase antizyme large isoform ORF1 (No. 134) [1]: +2.15 fold
Fold difference, protein kinase C and casein kinase substrate in neurons 2 (No. 129) [1]: +2.12 fold
Fold difference, protein phosphatase 2A regulatory subunit B′ delta isoform (No. 151) [1]: +2.63 fold
Fold difference, ring finger protein 141 (No. 136) [1]: +2.16 fold
Fold difference, sex hormone-binding globulin (No. 150) [1]: +2.62 fold
Fold difference, warm-temperature-acclimation-related-65 kDa-protein (C79) (No. 161) [1]: +5.88 fold
Fold difference, 5,10-methylenetetrahydrofolate reductase (NADPH)-like mRNA (No. 106) [2]: −2.06 fold
Fold difference, 40S ribosomal protein S18 (No. 89) [2]: −2.43 fold
Fold difference, 60S acidic ribosomal protein P1 (No. 100) [2]: −2.13 fold
Fold difference, ATPase, H+ transporting, lysosomal, V1 subunit E isoform 1 (No. 109) [2]: −2.04 fold
Fold difference, DEAD-box RNA-dependent helicase p68 mRNA (No. 113) [2]: −2.01 fold
Fold difference, Glycerol-3-phosphate dehydrogenase (No. 80) [2]: −3.03 fold
Fold difference, HSPC038 protein (No. 79) [2]: −3.05 fold
Fold difference, MHC Class I Region (No. 74) [2]: −3.70 fold
Fold difference, Putative transmembrane 4 superfamily member protein (No. 111) [2]: −2.02 fold
Fold difference, TRAF-binding protein (No. 78) [2]: −3.17 fold
Fold difference, Transcription initiation factor IIA gamma chain (No. 108) [2]: −2.06 fold
Fold difference, Uridine phosphorylase 1 (No. 99) [2]: −2.16 fold
Fold difference, bromodomain containing 2 (RING3) gene (No. 92) [2]: −2.35 fold
Fold difference, c-type lysozyme mRNA (No. 98) [2]: −2.18 fold
Fold difference, carnitine O-acetyltransferase precursor (No. 83) [2]: −2.78 fold
Fold difference, cathepsin F (No. 105) [2]: −2.08 fold
Fold difference, choriogenin Hminor (No. 102) [2]: −2.09 fold
Fold difference, cyclin G2 (No. 95) [2]: −2.27 fold
Fold difference, cysteine dioxygenase (No. 94) [2]: −2.32 fold
Fold difference, estrogen receptor beta 2 (No. 91) [2]: −2.37 fold
Fold difference, eukaryotic peptide chain release factor GTP-binding subunit (No. 88) [2]: −2.45 fold
Fold difference, glucose-regulated protein 94 (No. 104) [2]: −2.09 fold
Fold difference, glutathione S-transferase (No. 93) [2]: −2.33 fold
Fold difference, heart-type fatty acid-binding protein (No. 101) [2]: −2.12 fold
Fold difference, leukocyte elastase inhibitor (No. 110) [2]: −2.04 fold
Fold difference, mitogen-activated protein kinase 1 (No. 107) [2]: −2.06 fold
Fold difference, mitogen-activated protein kinase (p38) (No. 112) [2]: −2.02 fold
Fold difference, muscleblind mRNA (No. 85) [2]: −2.53 fold
Fold difference, phosphoenolpyruvate carboxykinase (No. 86) [2]: −2.51 fold
Fold difference, proline rich 6 (No. 71) [2]: −5.99 fold
Fold difference, proteasome subunit, beta type 8 (No. 81) [2]: −2.96 fold
Fold difference, protein kinase C and casein kinase substrate in neurons 1 (No. 96) [2]: −2.22 fold
Fold difference, protein phosphatase 2 regulatory subunit B beta (No. 87) [2]: −2.50 fold
Fold difference, protein tyrosine phosphatase-like, member b (No. 77) [2]: −3.23 fold
Fold difference, retinoid X receptor beta (RXRB) gene (No. 76) [2]: −3.42 fold
Fold difference, ribosomal protein L13 (No. 103) [2]: −2.09 fold
Fold difference, septin 7b (sept7b), transcript variant 1 (No. 97) [2]: −2.20 fold
Fold difference, telomerase reverse transcriptase gene (No. 72) [2]: −4.31 fold
Fold difference, trypsinogen (No. 82) [2]: −2.88 fold
Fold difference, trypsinogen (No. 90) [2]: −2.42 fold
Fold difference, tubulin, beta 5 (No. 84) [2]: −2.56 fold
Fold difference, uridine phosphorylase 2 (No. 73) [2]: −3.77 fold
Fold difference, vitellogenin II (No. 75) [2]: −3.69 fold
